Measured values published in US12156874B2, “Inhibitors of TRPC6” (Boehringer Ingelheim International GmbH, priority 2019, dated 2024).

Tested on: TRPC6
Experiment: not given
Details: lung tissue of IPAH patients; cited from earlier work

| SMILES | expression of TRPC6 |
| --- | --- |
| COc1ccccc1Oc1c(NS(=O)(=O)c2ccc(C(C)(C)C)cc2)nc(-c2ncccn2)nc1OCCO [bosentan] | decreases expression of TRPC6 |

Tested on: PASMC
Experiment: not given
Details: cited from earlier work

| SMILES | proliferation of PASMC |
| --- | --- |
| COc1ccccc1Oc1c(NS(=O)(=O)c2ccc(C(C)(C)C)cc2)nc(-c2ncccn2)nc1OCCO [bosentan] | decreases proliferation |

Biological target: T1, human TRPC6 (Homo sapiens, UniProt Q9Y210)
T1 construct: expressed in transfected cells; host or cells: HEK293
T1 sequence (Q9Y210 1-931): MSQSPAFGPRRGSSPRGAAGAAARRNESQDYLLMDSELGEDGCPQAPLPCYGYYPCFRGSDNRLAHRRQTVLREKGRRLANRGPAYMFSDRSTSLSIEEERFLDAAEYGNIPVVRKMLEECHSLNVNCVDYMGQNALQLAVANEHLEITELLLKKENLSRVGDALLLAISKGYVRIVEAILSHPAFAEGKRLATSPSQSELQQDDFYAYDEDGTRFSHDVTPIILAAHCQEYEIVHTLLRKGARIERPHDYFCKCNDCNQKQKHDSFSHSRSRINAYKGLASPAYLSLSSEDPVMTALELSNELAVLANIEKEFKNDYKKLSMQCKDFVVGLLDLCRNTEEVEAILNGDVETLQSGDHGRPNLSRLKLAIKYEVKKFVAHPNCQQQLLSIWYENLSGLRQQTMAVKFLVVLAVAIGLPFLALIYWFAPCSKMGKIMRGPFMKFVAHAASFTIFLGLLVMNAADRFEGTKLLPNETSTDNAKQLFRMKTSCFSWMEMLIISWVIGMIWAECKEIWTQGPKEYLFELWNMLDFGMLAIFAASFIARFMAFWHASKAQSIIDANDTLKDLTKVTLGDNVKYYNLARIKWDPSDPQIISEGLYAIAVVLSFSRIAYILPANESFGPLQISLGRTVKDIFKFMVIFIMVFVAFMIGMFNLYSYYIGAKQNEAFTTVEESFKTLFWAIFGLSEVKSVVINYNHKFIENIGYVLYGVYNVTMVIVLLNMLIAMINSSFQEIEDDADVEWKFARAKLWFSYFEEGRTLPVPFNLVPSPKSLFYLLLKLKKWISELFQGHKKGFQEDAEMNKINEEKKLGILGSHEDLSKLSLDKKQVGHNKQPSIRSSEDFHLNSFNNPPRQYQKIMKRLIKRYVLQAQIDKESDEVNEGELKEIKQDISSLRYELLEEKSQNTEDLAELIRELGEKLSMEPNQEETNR
Experiment: Assay A: Determination of TRPC6 inhibition, whole-cell patch clamp assay
Format: cell-based
Details: 30 nM; HEK293 cells expressing human TRPC6; pre-incubated at least 3 h; average inward current densities vs vehicle; activated by 10 μM ethyl 8-fluoro-1H,2H,3H,4H,5H-pyrido[4,3-b]indole-2-carboxylate
Source text: Assay A: Determination of TRPC6 Inhibition
HEK293 cells transfected with a plasmid expressing human TRPC6 are used for a patch clamp assay. Patch clamp experiments permit the detection of currents through TRPC6 channels in cellular systems as mentioned above. For whole-cell patch clamp recordings, a glass capillary electrode filled with electrolyte is brought into contact with a single cell and a high-resistance (gigaohm) seal is established with the cell membrane. The membrane is then ruptured to achieve the whole-cell configuration, permitting control of the intracellular electrical potential and measurement of electrical currents across the cell membrane using an amplifier connected to the electrode. A perfusion system permits control of the extracellular solution, including the addition of inhibitors and activators of TRPC6 channels. The TRPC6 current can be activated by 10 μM ethyl 8-fluoro-1H,2H,3H,4H,5H-pyrido[4,3-b]indole-2-carboxylate (commercially available, MFCD02930345) in the extracellular solution.
For the characterization of TRPC6 inhibitors, TRPC6 expression was induced for 20-48 hours, cells were removed from growth plates, and replated at low density (to attain good single-cell physical separation) in small dishes for measurement. Patch clamp recordings were performed in the whole-cell configuration at a holding potential of −40 mV. Every 1.5 seconds, a 400 ms voltage ramp was applied from −80 to +80 mV, flanked by 50 ms constant segments at −80 and +80 mV, respectively. TRPC6-mediated currents were quantified during those constant segments at −80 mV and +80 mV. The internal (pipette) solution consisted of 140 mM cesium aspartate, 10 mM EGTA, 1.91 mM CaCl2, 2.27 mM MgCl2 and 10 mM HEPES, pH 7.2 with CsOH, 40 nM calculated free Ca^2+. The external (bath) solution consisted of 145 mM NaCl, 4.5 mM KCl, 3 mM MgCl2, 10 mM HEPES, 10 mM glucose, 1 mM EGTA, pH 7.4 with NaOH. TRPC6 expressing cells were pre-incubated with potential inhibitors at either 30 nM or at various concentrations (for concentration-response-curves) or vehicle for at least 3 h and both maximal inward and outward currents were determined after addition of ethyl 8-fluoro-1H,2H,3H,4H,5H-pyrido[4,3-b]indole-2-carboxylate. Percent current inhibition was calculated from the average inward current densities of treated and vehicle cells. Current densities were calculated as absolute current normalized with respect to the individual cell's membrane capacitance as a surrogate parameter for cellular surface area. The number of cells measured for each group was chosen in a way that an average of 50% current inhibition with respect to the vehicle group would yield a statistically significant difference (p<0.05) in 90% of the cases based on the variability in current expression between cells. For the estimation of half-inhibitory concentrations, the Hill equation was fitted to the average % percent inhibition values at a series of concentrations of a specific compound.

| inhibition at 0.03 µM [%] | SMILES |
| --- | --- |
| 60 | COc1ccc(Oc2ccc(C(=O)N3CC[C@H](c4nnc(N)cc4C)C[C@@H]3C)cc2OC)cn1 [Compound 2, 6-[(2S,4S)-1-{3-Methoxy-4-[(6-methoxypyridin-3-yl)oxy]benzoyl}-2-methylpiperidin-4-yl]-5-methylpyridazin-3-amine] |
| 27 | COc1ccc(Oc2cnc(C(=O)N3CCC(c4ccc(N)nn4)CC3)cc2OC)cn1 [Compound 5, 6-(1-{4-Methoxy-5-[(6-methoxypyridin-3-yl)oxy]pyridine-2-carbonyl}piperidin-4-yl)pyridazin-3-amine trifluoracetic acid] |
| 61 | COc1ccc(Oc2ccc(C(=O)N3CCC(c4nnc(N)cc4C)CC3)cc2)cn1 [Compound 7, 6-(1-{4-[(6-Methoxypyridin-3-yl)oxy]benzoyl}piperidin-4-yl)-5-methylpyridazin-3-amine trifluoroacetic acid] |
| 37 | COc1ccc(Oc2ccc(C(=O)N3CCC(c4nnc(N)cc4C)CC3)cc2OC)cn1 [Compound 8, 6-(1-{3-Methoxy-4-[(6-methoxypyridin-3-yl)oxy]benzoyl}piperidin-4-yl)-5-methylpyridazin-3-amine trifluoroacetic acid] |
| 51 | COc1ccc(Oc2cnc(C(=O)N3CCC(c4nnc(N)cc4C)CC3)cc2OC)cn1 [Compound 9, 6-(1-{4-Methoxy-5-[(6-methoxypyridin-3-yl)oxy]pyridine-2-carbonyl}piperidin-4-yl)-5-methylpyridazin-3-amine trifluoracetic acid] |

Second part, the molecule before the results:

| SMILES | inhibition at 0.03 µM [%] |
| --- | --- |
| COc1ccc(Oc2ccc(C(=O)N3CC[C@H](c4nnc(N)cc4C)C[C@@H]3C)cc2)cn1 [Compound 1, 6-[(2S,4S)-1-{4-[(6-Methoxypyridin-3-yl)oxy]benzoyl}-2-methylpiperidin-4-yl]-5-methylpyridazin-3-amine trifluoroacetic acid] | 81 |
| COc1cc(C(=O)N2CC[C@H](c3nnc(N)cc3C)C[C@@H]2C)ccc1Oc1ccc(C(F)(F)F)nc1 [Compound 4, 6-[(2S,4S)-1-(3-Methoxy-4-{[6-(trifluoromethyl)pyridin-3-yl]oxy}benzoyl)-2-methylpiperidin-4-yl]-5-methylpyridazin-3-amine] | 12 |
| COc1ccc(Oc2ccc(C(=O)N3CC[C@@H](c4nnc(N)cc4C)[C@@H](C)C3)cc2OC)cn1 [Compound 6, 6-[(3R,4R)-1-{3-Methoxy-4-[(6-methoxypyridin-3-yl)oxy]benzoyl}-3-methylpiperidin-4-yl]-5-methylpyridazin-3-amine] | 72 |
